Results from ChEMBL document CHEMBL4825697, “Optimization and SAR research at the piperazine and phenyl rings of JNJ4796 as new anti-influenza A virus agents, part 1” (Eur J Med Chem, 2021).

What was measured:
Influenza A virus = experiment: Antiviral activity against Influenza A virus (H1N1) infected in dog MDCK cells assessed as inhibition of surface glycoprotein hemagglutinin; format: functional, organism-based
[1] = Cytotoxicity against dog MDCK cells assessed as reduction in cell viability; format: cell-based, Canis lupus familiaris
[2] = Selectivity index, ratio of CC50 for cytotoxicity against dog MDCK cells to IC50 for antiviral activity against Influenza A virus […] infected in dog MDCK cells; format: toxicity, cell-based; conditions: read-out: Selectivity Index
[3] = Tmax in Balb/c mouse at 25 mg/kg, po administered as single dose; format: ADME, organism-based; conditions: in vivo
[4] = Half life in Balb/c mouse at 25 mg/kg, po administered as single dose; format: ADME, organism-based; conditions: in vivo
hERG (KCNH2) = hERG (KCNH2) (Homo sapiens, UniProt Q12809); experiment: Inhibition of human ERG at 10 uM
Chain of hERG (KCNH2) (Q12809 whole entry): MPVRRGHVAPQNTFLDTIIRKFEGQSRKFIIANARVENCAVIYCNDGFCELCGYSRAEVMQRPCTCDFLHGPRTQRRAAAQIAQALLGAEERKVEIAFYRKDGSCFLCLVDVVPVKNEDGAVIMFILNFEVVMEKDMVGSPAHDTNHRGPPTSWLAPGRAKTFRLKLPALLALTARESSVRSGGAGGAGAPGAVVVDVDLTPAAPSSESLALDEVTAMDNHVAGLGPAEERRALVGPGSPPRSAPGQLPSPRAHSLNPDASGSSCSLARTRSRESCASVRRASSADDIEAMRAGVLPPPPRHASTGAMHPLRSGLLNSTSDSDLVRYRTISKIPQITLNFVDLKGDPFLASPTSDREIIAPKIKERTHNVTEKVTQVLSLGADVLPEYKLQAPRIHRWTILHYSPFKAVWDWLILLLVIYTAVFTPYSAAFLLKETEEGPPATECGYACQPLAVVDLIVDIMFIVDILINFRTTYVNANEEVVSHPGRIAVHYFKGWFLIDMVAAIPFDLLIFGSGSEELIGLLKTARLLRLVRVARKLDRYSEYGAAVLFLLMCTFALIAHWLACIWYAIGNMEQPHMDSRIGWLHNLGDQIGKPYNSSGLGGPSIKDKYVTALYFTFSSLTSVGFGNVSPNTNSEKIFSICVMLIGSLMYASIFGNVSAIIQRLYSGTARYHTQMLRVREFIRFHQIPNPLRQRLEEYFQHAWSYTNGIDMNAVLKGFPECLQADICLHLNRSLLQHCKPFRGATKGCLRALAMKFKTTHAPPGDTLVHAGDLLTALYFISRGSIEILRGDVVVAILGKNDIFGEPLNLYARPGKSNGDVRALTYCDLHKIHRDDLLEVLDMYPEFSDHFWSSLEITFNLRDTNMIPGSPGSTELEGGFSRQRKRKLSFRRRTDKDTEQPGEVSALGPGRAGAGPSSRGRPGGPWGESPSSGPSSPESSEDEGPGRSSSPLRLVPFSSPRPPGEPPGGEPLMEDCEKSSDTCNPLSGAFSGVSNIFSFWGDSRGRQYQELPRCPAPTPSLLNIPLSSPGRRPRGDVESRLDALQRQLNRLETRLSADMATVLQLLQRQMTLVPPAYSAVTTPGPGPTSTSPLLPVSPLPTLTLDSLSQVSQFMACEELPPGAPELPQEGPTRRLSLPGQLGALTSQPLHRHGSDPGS

[5] = AUC (0 to infinity) in Balb/c mouse at 25 mg/kg, po administered as single dose; format: ADME, organism-based; parameters: time infinity, route oral, dose 25 mg/kg; conditions: in vivo
[6] = Cmax in Balb/c mouse at 25 mg/kg, po administered as single dose; format: ADME, organism-based; parameters: route oral, dose 25 mg/kg; conditions: in vivo

Molecule `CC(=O)Nc1ccc2oc(-c3ccnc(C(=O)N4CCN(C(c5ccc(Cl)cc5)c5nnn(C)n5)CC4)c3)nc2c1` (stereo not drawn) has an IC50 (Influenza A virus) of 1.71 µM and a CC50 [1] of over 50 µM.

In the case of `CC(=O)Nc1ccc2oc(-c3ccnc(C(=O)N4CCN(C(c5ccc(Br)cc5)c5nnn(C)n5)CC4)c3)nc2c1` (stereo not drawn), the IC50 (Influenza A virus) is reported as 1.43 µM and the CC50 [1] is reported as over 50 µM.

`CC(=O)Nc1ccc2oc(-c3ccnc(C(=O)N4CCN([C@@H](c5ccccc5)c5nnn(C)n5)CC4)c3)nc2c1` gave an IC50 (Influenza A virus) of 1.9 µM, a CC50 [1] of over 200 µM and a selectivity ratio [2] of over 105.

With `CC(=O)Nc1ccc2oc(-c3ccnc(C(=O)N4CCN([C@H](c5ccccc5)c5nnn(C)n5)CC4)c3)nc2c1` the IC50 (Influenza A virus) was 0.04 µM, the CC50 [1] was 144 µM and the selectivity ratio [2] was 3590.

Work on `CC(=O)Nc1ccc2oc(-c3ccnc(C(=O)N4CCN(C(c5cccc(F)c5)c5nnn(C)n5)CC4)c3)nc2c1` (stereo not drawn) yielded an IC50 (Influenza A virus) of 2.47 µM and a CC50 [1] of over 50 µM.

For `CC(=O)Nc1ccc2oc(-c3ccnc(C(=O)N4CCC5(CC4)CN(C(c4ccccc4)c4nnn(C)n4)C5)c3)nc2c1` (stereo not drawn), the IC50 (Influenza A virus) was over 50 µM and the CC50 [1] was over 50 µM.

Work on `CC(=O)Nc1ccc2oc(-c3ccnc(C(=O)N4CCN(C(c5ccc([N+](=O)[O-])cc5)c5nnn(C)n5)CC4)c3)nc2c1` (stereo not drawn) yielded an IC50 (Influenza A virus) of 7.41 µM and a CC50 [1] of over 50 µM.

`CC(=O)Nc1ccc2oc(-c3ccnc(C(=O)N4CCN([C@H](c5ccc(F)cc5)c5nnn(C)n5)CC4)c3)nc2c1` showed an IC50 (Influenza A virus) of 0.03 µM, a CC50 [1] of over 200 µM and a Tmax [3] of 0.33 h. It also gave a half-life [4] of 5.84 h, an inhibition at 10 µM (hERG (KCNH2)) of 13.2% and a selectivity ratio [2] of over 6670. The AUC(0-inf) [5] was 1910 ng·h/mL and the Cmax [6] was 866 ng/mL.

In the case of `CC(=O)Nc1ccc2oc(-c3ccnc(C(=O)N4CCN(C(c5ccc(C)cc5)c5nnn(C)n5)CC4)c3)nc2c1` (stereo not drawn), the IC50 (Influenza A virus) is reported as 4.28 µM and the CC50 [1] is reported as over 50 µM.

In the case of `CC(=O)Nc1ccc2oc(-c3ccnc(C(=O)N4CC5CC4CN5C(c4ccccc4)c4nnn(C)n4)c3)nc2c1` (stereo not drawn), the IC50 (Influenza A virus) is reported as 18.5 µM and the CC50 [1] is reported as over 50 µM.

`CC(=O)Nc1ccc2oc(-c3ccnc(C(=O)N4CCN([C@@H](c5ccc(F)cc5)c5nnn(C)n5)CC4)c3)nc2c1` gave an IC50 (Influenza A virus) of 5.51 µM, a CC50 [1] of over 200 µM and a selectivity ratio [2] of over 36.

Molecule `CC(=O)Nc1ccc2oc(-c3ccnc(C(=O)N4CCN(C(c5ccc(C(F)(F)F)cc5)c5nnn(C)n5)CC4)c3)nc2c1` (stereo not drawn) has an IC50 (Influenza A virus) of 12.8 µM and a CC50 [1] of over 50 µM.

For `CC(=O)Nc1ccc2oc(-c3ccnc(C(=O)N4CCN(C(c5ccc(F)cc5)c5nnn(C)n5)CC4)c3)nc2c1` (stereo not drawn), the IC50 (Influenza A virus) was 0.27 µM and the CC50 [1] was over 50 µM.

With `COc1ccc(C(c2nnn(C)n2)N2CCN(C(=O)c3cc(-c4nc5cc(NC(C)=O)ccc5o4)ccn3)CC2)cc1` (stereo not drawn) the IC50 (Influenza A virus) was 12 µM and the CC50 [1] was over 50 µM.

`CC(=O)Nc1ccc2oc(-c3ccnc(C(=O)N4CC5(CCN(C(c6ccccc6)c6nnn(C)n6)CC5)C4)c3)nc2c1` (stereo not drawn) showed an IC50 (Influenza A virus) of 7.41 µM and a CC50 [1] of 32 µM.

In the case of `CC(=O)Nc1ccc2oc(-c3ccnc(C(=O)N4CCN(C(c5nnn(C)n5)c5ccccc5F)CC4)c3)nc2c1` (stereo not drawn), the IC50 (Influenza A virus) is reported as 7.41 µM and the CC50 [1] is reported as over 50 µM.

Molecule `CC(=O)Nc1ccc2oc(-c3ccnc(C(=O)N4CCN(C(c5ccc(OC(F)(F)F)cc5)c5nnn(C)n5)CC4)c3)nc2c1` (stereo not drawn) has an IC50 (Influenza A virus) of 3.18 µM and a CC50 [1] of over 50 µM.

Molecule `CC(=O)Nc1ccc2oc(-c3ccnc(C(=O)N4CCC5(CC4)CCN(C(c4ccccc4)c4nnn(C)n4)CC5)c3)nc2c1` (stereo not drawn) has an IC50 (Influenza A virus) of over 50 µM and a CC50 [1] of over 50 µM.

With `CC(=O)Nc1ccc2oc(-c3ccnc(C(=O)N4CCN(C(c5ccccc5)c5nnn(C)n5)CC4)c3)nc2c1` (racemic) the IC50 (Influenza A virus) was 0.35 µM, the CC50 [1] was over 50 µM and the Tmax [3] was 0.25 h. It also gave a half-life [4] of 3.69 h, an inhibition at 10 µM (hERG (KCNH2)) of 53.8% and an AUC(0-inf) [5] of 1210 ng·h/mL. For the same molecule, the Cmax [6] was 572 ng/mL.

Work on `CCOC(=O)C1=C[C@@H](OC(CC)CC)[C@H](NC(C)=O)[C@@H](N)C1` [OSELTAMIVIR] yielded an IC50 (Influenza A virus) of 3.44 µM, a CC50 [1] of over 200 µM and a selectivity ratio [2] of over 58.

`NC(=O)c1ncn([C@@H]2O[C@H](CO)[C@@H](O)[C@H]2O)n1` [RIBAVIRIN] gave an IC50 (Influenza A virus) of 4.28 µM, a CC50 [1] of over 200 µM and a selectivity ratio [2] of over 46.
